Source: paper PMC9833666, “Designing and identifying β-hairpin peptide macrocycles with antibiotic potential” (Science Advances, 2023)
Like-named read-outs stand apart in the source and are kept apart here. Bridge positions count the residues as written; N and C are the ends. Ends that are not written are not given here. Peptide text beside a SMILES is read from it.

Experiments:
[1] = test system: Escherichia coli W3110; format: cell-based; details: for Ec W3110 MIC MH: E. coli W3110, MH medium; for Ec W3110 MIC RPMI: E. coli W3110, RPMI medium
[2] = test system: Single-donor human red blood cells; experiment: Hemolysis assay; format: cell-based
Experimental: Single-donor human red blood cells (Innovative Research, no. IWB3ALS) were washed in PBS and adjusted to a concentration of 1 × 10^9 cells/ml. Each peptide was added individually to 200 μl of cells at a concentration of either 300 μg/ml (SySA library) or 128 μg/ml (SySA-5 optimization library) in a 96-well polypropylene plate (Corning, 3879). PBS alone and 1% Triton X-100 were used for background normalization and 100% hemolysis, respectively. Each reaction was set up in triplicate. Plates were incubated for 3 hours at 37°C. Following incubation, samples were centrifuged at 800g for 20 min, and 100 μl of supernatant was transferred to a flat-bottom 96-well plate (Genesse, 25-104). Percent hemolysis for each sample was determined by normalizing the absorbance at 540 nm for each sample to the average background and dividing by the average absorbance for 1% Triton X-100 (100% hemolysis). Error bars represent 1 SD of triplicate samples.

Ec W3110 MIC MH [1] [µg/mL] | Ec W3110 MIC RPMI [1] [µg/mL] | Compound | hemolysis [2] [%] | further results
> 256 | > 256 | CLTVRVDNRGSRLKVTVEVC (disulfide 1-20 (inferred)) [SySA-55] | -0.10 | –
> 256 | > 256 | CRIRINVNNGSGRVRLELEC (disulfide 1-20 (inferred)) [SySA-77] | 0.32 | –
> 256 | > 256 | CRIKIDVDNRRRTLKLQLEC (disulfide 1-20 (inferred)) [SySA-74] | 0.72 | –
> 256 | > 256 | CRVKVNINNGSRRLRLQVQC (disulfide 1-20 (inferred)) [SySA-50] | 0.34 | –
> 256 | > 256 | CRIRININNRRGRLKLQVEC (disulfide 1-20 (inferred)) [SySA-76] | 0.27 | –
> 256 | > 256 | CLTIRVDNRGSRVRITLEVC (disulfide 1-20 (inferred)) [SySA-70] | 0.92 | –
> 256 | > 256 | CLRIRLNNRRSRVRISVEVC (disulfide 1-20 (inferred)) [SySA-52] | 9.99 | –
> 256 | > 256 | CRVRININNRSRTLKLELEC (disulfide 1-20 (inferred)) [SySA-68] | 0.47 | –
> 256 | > 256 | CLRVRVDNGGSRLKITLEVC (disulfide 1-20 (inferred)) [SySA-75] | 2.18 | –
> 256 | > 256 | CLTVRLDNRGRGLKISVEVC (disulfide 1-20 (inferred)) [SySA-60] | 0.53 | –
> 256 | > 256 | CRVKINVNNRGRTLKLELEC (disulfide 1-20 (inferred)) [SySA-58] | 0.000315 | –
> 256 | > 256 | CRVRIDIDNRSRTLKLEVQC (disulfide 1-20 (inferred)) [SySA-64] | 0.70 | –
> 256 | > 256 | CRVRINIDNRSGRVKLEVQC (disulfide 1-20 (inferred)) [SySA-87] | 4.63 | –
> 256 | > 256 | CRVKINVDNRSGRVKLELQC (disulfide 1-20 (inferred)) [SySA-69] | 0.72 | –

The next lines start with the compound.

Compound | Ec W3110 MIC MH [1] [µg/mL] | Ec W3110 MIC RPMI [1] [µg/mL] | hemolysis [2] [%] | further results
CC[C@H](C)[C@@H]1NC(=O)[C@H](CCCNC(=N)N)NC(=O)[C@H](CC(C)C)NC(=O)[C@H](CCCNC(=N)N)NC(=O)CNC(=O)[C@H](CCCNC(=N)N)NC(=O)[C@H](CCCNC(=N)N)NC(=O)[C@H](CC(=O)O)NC(=O)[C@H](CC(=O)O)NC(=O)[C@H](CC(C)C)NC(=O)[C@H](CCCNC(=N)N)NC(=O)[C@H](C(C)C)NC(=O)[C@H](CCCNC(=N)N)NC(=O)[C@H](CC(C)C)NC(=O)[C@@H](N)CSSC[C@@H](C(=O)O)NC(=O)[C@H](C(C)C)NC(=O)[C@H](CCC(N)=O)NC(=O)[C@H](CC(C)C)NC(=O)[C@H](CO)NC1=O [SyPA-9] (H-CLRVRLDDRRGRLRISLQVC-OH; disulfide 1-20) | – | – | – | W3110 MIC ([1]; W3110): 64 µg/mL; %Hemo [2]: 11.36%
CRIKVDINNRSGRVKLQVQC (disulfide 1-20 (inferred)) [SySA-20] | > 256 | > 256 | 0.42 | –
CRVKINIDNRSRRVKLQVQC (disulfide 1-20 (inferred)) [SySA-6] | > 256 | > 256 | 0.66 | –
CVRVRLDNRGGGLRISLEVC (disulfide 1-20 (inferred)) [SySA-2] | > 256 | > 256 | 0.57 | –
CLTIRVNNRRGRVRISVQVC (disulfide 1-20 (inferred)) [SySA-15] | > 256 | > 256 | 0.80 | –
CVTVRVNNRGRGLRISLQVC (disulfide 1-20 (inferred)) [SySA-47] | > 256 | > 256 | 0.48 | –
CLTVRLDNRGSGLRITVEVC (disulfide 1-20 (inferred)) [SySA-44] | > 256 | > 256 | -0.0761 | –
CRVRVNINNRGGTVKLQLQC (disulfide 1-20 (inferred)) [SySA-13] | > 256 | > 256 | 0.91 | –
CC(C)C[C@@H]1NC(=O)[C@H](CCCNC(=N)N)NC(=O)[C@H](C(C)C)NC(=O)[C@H](CCCNC(=N)N)NC(=O)[C@H](C(C)C)NC(=O)[C@@H](N)CSSC[C@@H](C(=O)O)NC(=O)[C@H](C(C)C)NC(=O)[C@H](CCC(N)=O)NC(=O)[C@H](C(C)C)NC(=O)[C@H](CO)NC(=O)[C@H](C(C)C)NC(=O)[C@H](CCCNC(=N)N)NC(=O)[C@H](C(C)C)NC(=O)[C@H](CCCNC(=N)N)NC(=O)[C@H](CCCNC(=N)N)NC(=O)[C@H](CCCNC(=N)N)NC(=O)[C@H](CCCNC(=N)N)NC(=O)[C@H](CC(N)=O)NC(=O)[C@H](CC(N)=O)NC1=O [SyPA-10] (H-CVRVRLNNRRRRVRVSVQVC-OH; disulfide 1-20) | – | – | – | W3110 MIC ([1]; SyPA peptides, MH, replicate 2): 16 µg/mL; W3110 MIC ([1]; SyPA peptides, MH, replicate 3): 16 µg/mL; %Hemo ([2]; SyPA peptides, human red blood cells, 3 h 37°C, relative to 1% Triton X-100, peptide concentration not stated for SyPA, n=3): 1.99%
CC[C@H](C)[C@@H]1NC(=O)[C@H](CCCNC(=N)N)NC(=O)[C@H](CC(C)C)NC(=O)CNC(=O)[C@H](CO)NC(=O)[C@H](CCCNC(=N)N)NC(=O)[C@H](CCCNC(=N)N)NC(=O)[C@H](CC(N)=O)NC(=O)[C@H](CC(=O)O)NC(=O)[C@H](CC(C)C)NC(=O)[C@H](CCCNC(=N)N)NC(=O)[C@H](C(C)C)NC(=O)[C@H](CCCNC(=N)N)NC(=O)[C@H](C(C)C)NC(=O)[C@@H](N)CSSC[C@@H](C(=O)O)NC(=O)[C@H](C(C)C)NC(=O)[C@H](CCC(N)=O)NC(=O)[C@H](CC(C)C)NC(=O)[C@H](CO)NC1=O [SyPA-3] (H-CVRVRLDNRRSGLRISLQVC-OH; disulfide 1-20) | – | – | – | W3110 MIC ([1]; W3110): >128 µg/mL; %Hemo [2]: 0.39%
CRIRIDVNNGSGRLKLQLEC (disulfide 1-20 (inferred)) [SySA-21] | > 256 | > 256 | 0.42 | –
CRIRVNINNRRRTLRLEVEC (disulfide 1-20 (inferred)) [SySA-35] | > 256 | > 256 | 0.12 | –
CRIRINVNNRGRTLKLEVQC (disulfide 1-20 (inferred)) [SySA-10] | > 256 | > 256 | 0.40 | –
NC[C@H]1O[C@H](O[C@H]2[C@H](O)[C@@H](O[C@H]3O[C@H](CO)[C@@H](O)[C@H](N)[C@H]3O)[C@H](N)C[C@@H]2N)[C@H](O)[C@@H](O)[C@@H]1O [kanamycin, reference compound] | 1 | – | – | W3110 MIC MHII ([1]; E. coli W3110, MHII medium): 2 µg/mL; fold increase in MHII MIC relative to standard MH ([1]; cation-adjusted MH (MHII) vs standard MH): twofold; Hemolysis (%) ([2]; human red blood cells 1x10^9 cells/ml, peptide 300 μg/ml, 3 h 37°C, relative to 1% Triton X-100, A540, ± 1 SD, n=3): 0.1 ± 0.03%; hemolysis ([2]; human red blood cells, st dev in separate column): 0.0147%
CVRVRVNNRGGGVRITLQVC (disulfide 1-20 (inferred)) [SySA-24] | > 256 | > 256 | 0.38 | –
CVTVRVNNRGSRLKVSVEVC (disulfide 1-20 (inferred)) [SySA-18] | > 256 | > 256 | 0.60 | –
CRVRVNINNGSGRVKLELEC (disulfide 1-20 (inferred)) [SySA-19] | > 256 | > 256 | 0.33 | –
CLRIRVNNRGSGLRISVEVC (disulfide 1-20 (inferred)) [SySA-22] | > 256 | > 256 | 0.48 | –
CRVRININNGGRRVKLEVQC (disulfide 1-20 (inferred)) [SySA-32] | > 256 | > 256 | 0.0319 | –
CVRVRVDNRGSRVKVTVQVC (disulfide 1-20 (inferred)) [SySA-12] | > 256 | > 256 | 0.30 | –
CRIRINIDNRSGTVRLEVQC (disulfide 1-20 (inferred)) [SySA-3] | > 256 | > 256 | 0.24 | –
